The target of series [1] is T1, recombinant human VCP (Rattus norvegicus, UniProt P46462).
T1 construct: His (N); host or cells: Escherichia coli BL21(DE3)
Put plainly: VCP ATPase activity, EnzChek Phosphate assay. It counts as biochemical. As to the method:
(§1) VPS4B and VCP ATPase activities were measured using the EnzChek Phosphate assay for the quantification of released phosphate. Assay buffers were based on literature precedents ([Cupido et al, 2019], [2021]) as follows: VPS4B buffer (20 mM HEPES-KOH, pH 7.4, 25 mM KOAc, 2 mM MgCl2, 5 mM (NH4)2SO4, 0.5 mM CaCl2, 2.5 mM DTT, 0.1 mg/mL BSA, 0.005% v/v Triton X-100), VCP buffer (20 mM HEPES-NaOH, pH 7.4, 20 mM NaCl, 10 mM MgCl2, 5 mM (NH4)2SO4, 0.5 mM CaCl2, 2.5 mM DTT, 0.1 mg/mL BSA, 0.005% v/v Triton X-100). In black clear-bottom 384-well plates, 22.5 μL of 5% DMSO or 40× test compounds diluted in the respective assay buffer was added to each well. ATPases were diluted to 1 μM in the respective buffers containing 2× EnzChek Phosphate assay coupling reagents of 400 μM MESG and 2 U of PNP, then 25 μL was added to each well. Plates were mixed at 1000 rpm for 30 minutes at RT while being protected from light. The reaction was initiated by adding 2.5 μL of 20 mM MgATP or water followed by mixing at 1200 rpm for 30 seconds at RT. Plates were measured at 360 nm using a CLARIOstar plate reader (BMG LABTECH) for 20 minutes at 37 °C. ATPase activity was calculated as the amount of phosphate released over a 5-minute interval under linear initial velocity conditions. The remaining ATPase activity was calculated by normalizing compound-treated activity values to the DMSO control. IC50 was calculated by fitting normalized values to a sigmoidal dose-response curve with Hill slope = −1 using Graph Pad Prism 10.0.
(§2) To identify VPS4i, we developed enzyme- and cell-based VPS4 functional assays to serve as VPS4i-screening platforms. For the enzyme-based assay, we used the colorimetric EnzChek Phosphate assay that detects free phosphate with the advantage of continuous measurement of ATP hydrolysis over time. […] Due to the high sequence and structural similarity of AAA-ATPases, we also established a VCP ATPase assay to evaluate hit selectivity. […] For the cell-based assay, our approach was based on how VPS4 inhibition causes the accumulation of ESCRT-III ([Babst et al, 1998]; [Katoh et al, 2003]). We used an N-terminal GFP-tagged CHMP4B reporter system because it is the most abundant ESCRT-III subunit ([Katoh et al, 2004]; [Teis et al, 2008]). Our aim was to test compounds under short-term serum and amino acid starvation to stimulate ESCRT activity for easier detection of inhibitors ([Takahashi et al, 2018], [2019]). […] Overall, we established 2 systems for VPS4i screening, a VPS4B ATPase activity assay and a GFP-CHMP4B accumulation cell-based assay.

The target in series [2] is T2, recombinant human VCP.
T2 construct: His (N); host or cells: Escherichia coli BL21(DE3)
T2 sequence (P46462 2-806 limits assumed): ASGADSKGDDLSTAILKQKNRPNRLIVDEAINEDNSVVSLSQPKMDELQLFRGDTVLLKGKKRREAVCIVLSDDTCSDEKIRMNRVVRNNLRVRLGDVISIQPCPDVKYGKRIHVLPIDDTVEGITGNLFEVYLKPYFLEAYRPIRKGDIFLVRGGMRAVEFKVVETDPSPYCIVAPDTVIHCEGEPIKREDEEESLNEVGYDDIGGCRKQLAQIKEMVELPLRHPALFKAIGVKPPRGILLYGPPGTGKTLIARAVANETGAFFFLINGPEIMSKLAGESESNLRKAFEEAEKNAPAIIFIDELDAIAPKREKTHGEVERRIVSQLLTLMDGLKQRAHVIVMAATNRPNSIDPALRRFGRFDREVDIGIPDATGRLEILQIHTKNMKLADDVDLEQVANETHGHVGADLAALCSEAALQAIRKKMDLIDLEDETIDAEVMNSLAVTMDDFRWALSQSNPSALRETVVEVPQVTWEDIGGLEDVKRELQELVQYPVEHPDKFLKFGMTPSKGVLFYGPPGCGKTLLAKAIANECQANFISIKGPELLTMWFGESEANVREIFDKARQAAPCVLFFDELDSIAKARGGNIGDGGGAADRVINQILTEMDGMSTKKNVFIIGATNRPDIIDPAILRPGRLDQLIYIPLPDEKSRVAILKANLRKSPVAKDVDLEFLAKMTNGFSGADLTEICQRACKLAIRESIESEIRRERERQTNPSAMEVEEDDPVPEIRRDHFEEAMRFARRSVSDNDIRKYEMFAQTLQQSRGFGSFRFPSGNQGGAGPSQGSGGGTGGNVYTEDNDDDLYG
The experiment in a line: VCP ATPase activity, EnzChek Phosphate assay. It counts as biochemical. Conditions: 0.5 μM enzyme. As to the method:
as §1, §2

The test system of series [3] is GFP-CHMP4B- and mCherry-LGALS3-expressing U2OS cells. Put plainly: mCherry-LGALS3 accumulation, endolysosomal membrane integrity (HCM). It counts as cell-based. As to conditions: 2 μM 4-107, starved, 2 hours. On the procedure: Live-cell fluorescence imaging and analysis were performed using the CellInsight CX7 LZR high-content screening platform with Onstage Incubator (Thermo Scientific; 37 °C, 5% CO2, 20% O2, 60% humidity). SM was acclimatized at 37 °C and 5% CO2 for at least 30 minutes prior to all experiments for pH equilibration. For cell-based VPS4i screen, U2OS cells stably expressing N-terminal GFP-tagged charged multivesicular body protein 4B (GFP-CHMP4B) were cultured in black clear-bottom 96-well plates (Corning; 3603) at a density of 6000 cells/well. Cells were stained with Hoechst 33342 (1:1000) for 15 minutes at 37 °C, rinsed with 1× Dulbecco's phosphate-buffered saline (DPBS), and treated with SM containing 0.1% DMSO or 1 μM test compounds. Plates were then scanned using the 20× objective for 1 hour with ≥100 cells/well across 6 fields/well. Fluorescence intensity of GFP-CHMP4B foci per cell for each compound was normalized to that of 4-107. For all other assays, the cells were cultured overnight in black glass-bottom 96-well plates (Cellvis; P96-1.5H-N) then stained, rinsed, and treated with SM containing the indicated compounds (0.1% DMSO or 0.1% DMSO/0.1% ethanol [vehicle] final). Plates were scanned using the 20× NA .70 objective at the indicated intervals with ≥ 300 cells/well across 3 fields/well. […]

Series [4] in a line: Escalating dose MTD study. It counts as in vivo. Conditions: daily doses increasing 50% each day from 5 mg/kg, B6 mice. On the procedure:
(§3) All animal studies were performed in accordance with the guidelines of the Institutional Animal Care and Use Committee at the Penn State College of Medicine (IACUC # PRAMS201145989). To determine the maximum tolerated dose (MTD) of 4-107, escalating and acute dose studies were performed. The escalating MTD study used an intra-animal design where each mouse received daily doses of 4-107 that increased 50% each day from a starting dose of 5 mg/kg. Six female C57BL/6J (B6) (The Jackson Laboratory; 000664) were administered 4-107 either orally via oral gavage or via intraperitoneal injection with 3 mice per group. The acute MTD study had groups of mice receive daily consistent doses of 4-107 i.p. Here, B6 mice were administered 4-107 at either 5 (n = 4; 2 males [M], 2 females [F]), 10 (n = 4; 2 M, 2 F), 15 (n = 5; all M), or 20 mg/kg (n = 5; all M). In both studies, 4-107 dissolved in DMSO was mixed into 30% propylene glycol, 5% Tween 80, and 65% of 5% dextrose in water (PTD [vehicle]) with a final DMSO concentration of ≤ 3%. […] BCS was determined by posture and prominence of skeletal features upon visual inspection and palpation, where BCS < 2 indicated a hunched posture and emaciation. […] The MTD was determined as the highest dose of 4-107 administered without mice reaching the toxicity endpoints.

Another series can be described thus: Acute dose MTD study. Conditions: both sexes, C57BL/6J, mouse, in vivo, ip, fixed daily doses 5, 10, 15, 20 mg/kg, B6 mice; read-out: acute dose MTD (tolerated dose). As to the method: as §3

Each structure is given as a SMILES string.

By IC50 is commonly meant the concentration needed to halve the response being measured. By MTD is commonly meant the largest dose that counted as tolerated.

T1 sequence (P46462 2-806 limits assumed): as above

As to `COc1cccc2c(NCc3ccccc3)nc(NCc3ccccc3)nc12` [Compound 4-107, N^2,N^4-dibenzyl-8-methoxyquinazoline-2,4-diamine], the “VCP ATPase (% DMSO)” value on recombinant human VCP [1] (remaining ATPase activity, screened at 5 μM, mean ± SD, Table 2) stood at 68.48 ± 2.85 % DMSO; at recombinant human VCP [1] (screened at 5 µM, mean ± S.D., Supplemental Table 2), 68.48 ± 2.02 % DMSO. Besides, the 50% inhibitory concentration (IC50) on recombinant human VCP [2] was 8.6 ± 3.9 µM. Moreover, the “mCherry-LGALS3 signals (endolysosomal membrane integrity)” value in series [3] is given as “increase in mCherry-LGALS3 signals”. Also, in series [4] (i.p.), the “doses exhibiting toxicity, intraperitoneal route” value is reported as “above 25 mg/kg”. Besides, the “well tolerated dose, oral route” value in series [4] (oral gavage, doses up to) is recorded as “approximately 90 mg/kg”. Besides, in the series “Acute dose MTD study”, the MTD was 5 mg/kg.

Values taken from PMC13095408, “DBeQ derivative targets vacuolar protein sorting 4 functions in cancer cells and suppresses tumor growth in mice” (The Journal of Pharmacology and Experimental Therapeutics, 2025).
